These results are taken from patent US6756037B2, “Polymer conjugates of biologically active agents and extension moieties for facilitating conjugation of biologically active agents to polymeric terminal groups” (Enzon, Inc., priority 2000, dated 2004).

The test deals with P388/0 cell lines. In words: Cytotoxicity assay, growth inhibition of P388/0 cells (Alamar Blue). To be noted: 3 days incubation at 37° C., drug concentration inhibiting growth of cells by 50%. Type of test: cell-based. The method, then:
Cell Lines and Cytotoxicity Assays. Studies using P388/0 cell lines for IC50 (drug concentration inhibiting growth of cells by 50%) were maintained and conducted using standard procedures. Briefly, for IC50 determination, cells were seeded into the microwell plates at a density of 2×10^3 cells per 50 μL per well. Plates were incubated at 37° C. in a humidified incubator with 5% CO2 for 3 days. Cell growth was measured by the addition of 10 μL/well of Alamar Blue (Alamar Biosciences, Inc., Sacramento, Calif.) and the plates were incubated a further 4 hours at 37° C. The IC50 values for each compound were determined from absorbance versus dilution factor plots. All cell cultures for animal implantation were maintained at 37° C. in a humidified atmosphere of 5% CO2/[…] and subcultured once a week. All cell lines were periodically tested for Mycoplasma and were Mycoplasma free.
In general terms: Alamar Blue is a resazurin reagent that responds to reducing activity.

pIC50: −log10 of the molar value.

Broadly, the pIC50 is the negative decadic logarithm of the IC50, by convention in mol/L. Higher therefore signals a small IC50.

The compound `Nc1ccn([C@@H]2O[C@H](CO)[C@@H](O)[C@@H]2O)c(=O)n1` [Ara-C, ara-C] showed a pIC50 of 8.00.
